Experimental data as given in patent publication US5597798A, “Taxol and epidermal growth factor used to enhance treatment of ovarian cancer” (The Regents of the University of California, priority 1994, dated 1997).
Like-named read-outs stand apart in the source and are kept apart here.

Assays:
[1] = tested on: 2008 human ovarian carcinoma cells; experiment: Colony forming assay, effect of EGF on sensitivity to cytotoxic agents; type: cell-based
2008/C13*5 cells = experiment: Cellular accumulation of DDP; type: cell-based, human; conditions: medium alone, end of a 1-h incubation
Procedure: (§1) Cell-associated ^195m Pt was determined by as a measure of DDP accumulation. For DDP accumulation studies, subconfluent monolayers were treated with 37° C. RPMI 1640 medium containing 20 μM [^195m Pt]-DDD. The dishes were immediately returned to the incubater. After 1 h incubation, the medium was aspirated, the cells were washed rapidly with 4° C. PBS 4 times. Two ml of 1N NaOH was added and the cells allowed to digest overnight. A forty μl aliquot was used for determination of protein content by the method of Bradford (Bradford, Anal. Biochem. 72:248-254 (1976)), and the remaining […] was counted in glass tubes on a Trak 1191 gamma counter (Tracer Analytic, EIK Grove Village, Ill.). Columns represent the mean values of 3 experiments performed with duplicate cultures. The bars represent the standard deviation.
The 2008/C13*5 cell line is 8-10-fold resistant to DDP. […] C13*5 cells were treated with appropriate concentration of DDP in the presence (.circle-solid.) or absence (0) of 10^-7 M TPA for 1 h. Drug cytotoxicity was determined by colonogenic assay on plastic dishes. Each point represents the mean values of 3 experiments performed with triplicate cultures. The bars represent the standard deviation. […] This 2.6-fold sensitization was nearly identical with the 2.5 fold sensitization observed in the DDP-sensitive 2008 cells. […]

2008 cells = experiment: Cellular accumulation of [195mPt]DDP; type: cell-based, human; conditions: 60 min
Procedure: as §1
Cultured 2008 cells were treated concurrently with [^195m Pt]DDP and TPA for 60 min. A vehicle control consisting of an appropriate dilution of acetone was run concurrently. […] Cells treated with medium alone contained 140±13 pmol/mg of protein, whereas those treated with the acetone control contained 141±7 pmol/mg of protein, and those treated with TPA contained 143±21 pmol/mg of protein.

2008 tumor xenografts = experiment: Effect of EGF on cisplatin toxicity against tumor xenografts in athymic mice; type: in vivo, athymic mice (nu/nu)
Procedure: For these studies, 3 to 4 week old female athymic mice (nu/nu) from BALB/c origin were used which were supplied by Harlan Sprague Dawley, Inc. (Indianapolis, Ind.). The mice were kept in a laminar flow hood at 28° C. and fed standard mouse diet and water ad libitum.
Tumor xenografts were established from 2008 cells by harvesting confluent cell cultures by trypsinization and resuspending the cells in RPMI 1640 medium at 2.5×10^7 cells per ml. From this suspension, 0.2 ml aliquots containing 5×10^6 cells were injected s.c. on each shoulder of the athymic mice. In each mouse, two tumors were followed and tumor volumes were determined using the formula (length×width^2)/2 (Giavazzi et al., Cancer Res. 46:1928 (1986) and Tomayko & Reynolds Cancer Chemother. Pharmacol. 24:148 (1989)).
In all groups, treatment was administered 24 hours after the inoculation with tumor cells.
Tumor growth of each tumor in each animal was expressed as plot of in(tumor volume) as a function of time. The regression line of the in(tumor volume) versus time plot was calculated by using the method of least squares. The intercept and slope were obtained and used to calculate the time each tumor required to reach an arbitrarily defined volume of 1 ml. This volume was chosen because most tumors in all treatment groups reached this endpoint. For comparisons between two groups the unpaired Student's T-test was used. […]

## N.N.[Cl][Pt][Cl] [cisplatin]
[1]; EGF and the cytotoxic agent concurrently for 1 h
  effect of EGF on sensitivity of 2008 cells to the agent (in words): significant increase in sensitivity
[1]; Table 3, ratio of IC50 in control and EGF-treated cells
  Dose modifying factor: 2.7
[1]; read-out: IC50 in absence of EGF, Table 3, cisplatin 1 h, no EGF
  IC50: 2.45 µM
[1]; read-out: IC50 in absence of EGF, cytotoxic agent for 1 h, no EGF
  IC50: 2.8 µM
[1]; read-out: IC50 in presence of EGF, EGF and the cytotoxic agent concurrently for 1 h
  IC50: 0.9 µM
[1]; read-out: IC50 in presence of EGF, Table 3, 10 nM EGF and cisplatin concurrently for 1 h
  IC50: 0.91 µM
2008/C13*5 cells
  DDP accumulated: 37.0±3 pmol/mg of protein
2008 cells; medium alone
  cellular accumulation of [195mPt]DDP: 140±13 pmol/mg of protein
2008 cells; treated concurrently with TPA
  cellular accumulation of [195mPt]DDP: 143±21 pmol/mg of protein
2008 tumor xenografts; 1 mg/kg EGF s.c. and/or 15 mg/kg cisplatin i.p., 24 hours after inoculation
  final tumor volume: significantly reduced relative to control tumors
2008 tumor xenografts; 15 mg/kg cisplatin i.p.
  additional time required for tumors to reach a volume of 1 ml vs control tumors: 6 days
